Several values for one entry are separate records, joined by “and”; a condition that tells them apart may be missing. Equal entries are not always repeated. Inconclusive results and toxic doses are left out. How the source made its calls: active means survival T/C of 150% or more; inactive means T/C below 125% in these data.
Test system: P388 leukemia ip, CD2F1 mice, survival T/C
Assay: NCI In Vivo Anticancer Drug Screen. Data for tumor model P388 Leukemia (intraperitoneal) in CD2F1 (CDF1) mice
Conditions: endpoint: median survival time, higher = longer survival
How it was run: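 Mice carrying the transplanted tumor received test compound or vehicle. Survival was recorded in each group, and the value is the treated-group measurement divided by that of the vehicle-treated control group.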

[1] = dose: 50.0 mg/kg/injection, schedule: Q01DX009 (ip), vehicle: saline with Tween-80
[2] = dose: 100.0 mg/kg/injection, schedule: Q01DX009 (ip), vehicle: saline with Tween-80
[3] = dose: 50.0 mg/kg/injection, schedule: Q01DX005 (ip), vehicle: saline with Tween-80
[4] = dose: 100.0 mg/kg/injection, schedule: Q01DX005 (ip), vehicle: saline with Tween-80
[5] = dose: 3.13 mg/kg/injection, schedule: Q01DX009 (ip), vehicle: saline with Tween-80
[6] = dose: 6.25 mg/kg/injection, schedule: Q01DX009 (ip), vehicle: saline with Tween-80
[7] = dose: 12.5 mg/kg/injection, schedule: Q01DX009 (ip), vehicle: Klucel (hydroxypropylcellulose) (HPC)
[8] = dose: 12.5 mg/kg/injection, schedule: Q01DX009 (ip), vehicle: saline with Tween-80
[9] = dose: 50.0 mg/kg/injection, schedule: Q01DX009 (ip), vehicle: Klucel (hydroxypropylcellulose) (HPC)
[10] = dose: 100.0 mg/kg/injection, schedule: Q01DX009 (ip), vehicle: Klucel (hydroxypropylcellulose) (HPC)
[11] = dose: 50.0 mg/kg/injection, schedule: Q01DX005 (ip), vehicle: saline
[12] = dose: 100.0 mg/kg/injection, schedule: Q01DX005 (ip), vehicle: saline
[13] = dose: 200.0 mg/kg/injection, schedule: Q01DX005 (ip), vehicle: saline
[14] = dose: 25.0 mg/kg/injection, schedule: Q01DX009 (ip), vehicle: saline with Tween-80
[15] = dose: 60.0 mg/kg/injection, schedule: Q01DX005 (ip), vehicle: saline with Tween-80
[16] = dose: 120.0 mg/kg/injection, schedule: Q01DX005 (ip), vehicle: saline with Tween-80
[17] = dose: 240.0 mg/kg/injection, schedule: Q01DX005 (ip), vehicle: saline with Tween-80
[18] = dose: 25.0 mg/kg/injection, schedule: Q01DX009 (ip), vehicle: saline
[19] = dose: 50.0 mg/kg/injection, schedule: Q01DX009 (ip), vehicle: saline
[20] = dose: 100.0 mg/kg/injection, schedule: Q04DX003 (ip), vehicle: saline with Tween-80
[21] = dose: 200.0 mg/kg/injection, schedule: Q04DX003 (ip), vehicle: saline with Tween-80

Measured: T/C

C[CH2][Sn]1([CH2]C)[c]2ccccc2Oc2cccc[c]21
inactive: [1] 109 % of control | [2] 109 % of control

CC(C)=CCc1c(O)ccc(C(=O)C2C(c3c(O)cc(-c4cc5ccc(O)cc5o4)cc3O)C=C(C)CC2c2ccc(O)cc2O)c1O (stereo not given)
inactive: dose: 3.75 mg/kg/injection, schedule: Q01DX005 (ip), vehicle: water 94 % of control | dose: 7.5 mg/kg/injection, schedule: Q01DX005 (ip), vehicle: water 103 % of control | dose: 15.0 mg/kg/injection, schedule: Q01DX005 (ip), vehicle: water 99 % of control | dose: 30.0 mg/kg/injection, schedule: Q01DX005 (ip), vehicle: water 110 % of control | dose: 60.0 mg/kg/injection, schedule: Q01DX005 (ip), vehicle: water 113 % of control

CN(N=Nc1ccc(C#N)cc1)C(C)(C)C
inactive: [3] 100 % of control | [4] 100 % of control

Cc1coc2c1C(OC(=O)C(C)C)C1(C)C(C)CCC(O)C1C2=O (stereo not given)
inactive: dose: 1.56 mg/kg/injection, schedule: Q01DX009 (ip), vehicle: saline with Tween-80 100 % of control | [5] 96 % of control | [6] 93 % of control | [7] 94 % of control | [8] 109 % of control | [9] 97 % of control | [10] 114 % of control

Cc1cc(=O)c2c(N(C)C)cccc2[nH]1
inactive: dose: 50.0 mg/kg/injection, schedule: Q01DX009 (ip), vehicle: acid diluted with saline 104 % of control | dose: 100.0 mg/kg/injection, schedule: Q01DX009 (ip), vehicle: acid diluted with saline 91 % of control | dose: 200.0 mg/kg/injection, schedule: Q01DX009 (ip), vehicle: acid diluted with saline 96 % of control

NCCCn1[nH]c(=O)c2cnccc2c1=O
inactive: [11] 103 % of control | [12] 94 % of control | [13] 101 % of control

Nc1nnc(SCc2ccccc2)s1
inactive: [5] 102 % of control | [6] 104 % of control | [8] 109 % of control | [14] 103 % of control

C[CH2][Sn]1([CH2]C)[O]C2C(O)OC(CO)C(O)C2[O]1 (stereo not given)
inactive: dose: 1.56 mg/kg/injection, schedule: Q04DX003 (ip), vehicle: saline 107 % of control and 120 % of control | dose: 3.12 mg/kg/injection, schedule: Q04DX003 (ip), vehicle: saline 107 % of control and 120 % of control | dose: 6.25 mg/kg/injection, schedule: Q04DX003 (ip), vehicle: saline 114 % of control | dose: 12.5 mg/kg/injection, schedule: Q04DX003 (ip), vehicle: saline 116 % of control

OC1(c2ccc(Cl)cc2)c2ccccc2COc2ccccc21 (stereo not given)
inactive: dose: 100.0 mg/kg/injection, schedule: Q01DX001 (ip), vehicle: Klucel (hydroxypropylcellulose) (HPC) 102 % of control | dose: 200.0 mg/kg/injection, schedule: Q01DX001 (ip), vehicle: Klucel (hydroxypropylcellulose) (HPC) 100 % of control | dose: 400.0 mg/kg/injection, schedule: Q01DX001 (ip), vehicle: Klucel (hydroxypropylcellulose) (HPC) 100 % of control

Cc1cc2[nH]c3c(C#N)c(O)c(Cc4ccccc4)c(=O)n3c2cc1C
inactive: [15] 91 % of control | [16] 89 % of control | [17] 90 % of control

COc1c2c(c(OC)c3c(OC)c4ccccc4c(OC)c13)CC(=O)CC2
inactive: dose: 1.56 mg/kg/injection, schedule: Q01DX009 (ip), vehicle: other 105 % of control | dose: 3.13 mg/kg/injection, schedule: Q01DX009 (ip), vehicle: other 101 % of control | dose: 6.25 mg/kg/injection, schedule: Q01DX009 (ip), vehicle: other 105 % of control | dose: 12.5 mg/kg/injection, schedule: Q01DX009 (ip), vehicle: other 101 % of control | dose: 25.0 mg/kg/injection, schedule: Q01DX009 (ip), vehicle: other 91 % of control

O=C1CSC=C(c2ccccc2)O1
inactive: [8] 108 % of control | [14] 110 % of control | [1] 109 % of control | [2] 104 % of control

Cn1cnc2c(=O)[nH]c(N)nc21
inactive: [3] 102 % of control | [4] 107 % of control | dose: 200.0 mg/kg/injection, schedule: Q01DX005 (ip), vehicle: saline with Tween-80 107 % of control

Fc1ccnc(F)n1
inactive: dose: 25.0 mg/kg/injection, schedule: Q04DX003 (ip), vehicle: water 100 % of control | dose: 50.0 mg/kg/injection, schedule: Q04DX003 (ip), vehicle: water 104 % of control

COc1ccc(/C(N)=N/OCc2ccc(C#N)cc2)cc1
inactive: [9] 96 % of control | [10] 93 % of control | dose: 200.0 mg/kg/injection, schedule: Q01DX009 (ip), vehicle: Klucel (hydroxypropylcellulose) (HPC) 95 % of control

NC(CO)C(=O)O (stereo not given)
inactive: [8] 102 % of control | [14] 105 % of control | [18] 110 % of control | [1] 114 % of control | [19] 112 % of control [middle of 4 runs] | dose: 100.0 mg/kg/injection, schedule: Q01DX009 (ip), vehicle: saline 104 % of control [middle of 4 runs] | [20] 99 % of control | dose: 200.0 mg/kg/injection, schedule: Q01DX009 (ip), vehicle: saline 110 % of control [middle of 4 runs] | [21] 97 % of control | dose: 400.0 mg/kg/injection, schedule: Q04DX003 (ip), vehicle: saline with Tween-80 100 % of control

CC(NNC(=S)N1CCC(c2ccccc2)CC1)c1cc2ccccc2cn1 (stereo not given)
inactive: dose: 6.25 mg/kg/injection, schedule: Q01DX005 (ip), vehicle: saline with Tween-80 97 % of control | dose: 12.5 mg/kg/injection, schedule: Q01DX005 (ip), vehicle: saline with Tween-80 103 % of control | dose: 25.0 mg/kg/injection, schedule: Q01DX005 (ip), vehicle: saline with Tween-80 111 % of control

O=C(Nc1ccc(O)c(C(=O)O)c1)Oc1ccc([N+](=O)[O-])cc1
inactive: [15] 102 % of control | [16] 107 % of control | [17] 94 % of control

COC(=O)C1=[N+]([O-])[N+]([O-])=C(C(=O)OC)C1=O
inactive: [7] 95 % of control | dose: 25.0 mg/kg/injection, schedule: Q01DX009 (ip), vehicle: Klucel (hydroxypropylcellulose) (HPC) 94 % of control

CCC12OC(COc3ccccc3)CN1CCN2c1ccccc1 (stereo not given)
inactive: [15] 97 % of control | [16] 98 % of control

COc1ccc(Oc2c(OC)cc(NCc3ccc(CN)cc3)c3ncccc23)cc1
inactive: [8] 110 % of control | [14] 109 % of control | [1] 109 % of control

COc1cc(C(=O)CO)cc(OC)c1OC(C)=O
inactive: [20] 104 % of control and 105 % of control | [21] 116 % of control

CC1(C(=O)O)NCCc2cc(O)c(O)cc21 (stereo not given)
inactive: dose: 50.0 mg/kg/injection, schedule: Q01DX005 (ip), vehicle: Klucel (hydroxypropylcellulose) (HPC) 104 % of control | dose: 100.0 mg/kg/injection, schedule: Q01DX005 (ip), vehicle: Klucel (hydroxypropylcellulose) (HPC) 104 % of control | dose: 200.0 mg/kg/injection, schedule: Q01DX005 (ip), vehicle: Klucel (hydroxypropylcellulose) (HPC) 103 % of control

C/C=C/C=c1/[nH]c(=O)/c(=C\C)[nH]c1=O
inactive: dose: 50.0 mg/kg/injection, schedule: Q04DX003 (ip), vehicle: Klucel (hydroxypropylcellulose) (HPC) 100 % of control | dose: 100.0 mg/kg/injection, schedule: Q04DX003 (ip), vehicle: Klucel (hydroxypropylcellulose) (HPC) 98 % of control | dose: 200.0 mg/kg/injection, schedule: Q04DX003 (ip), vehicle: Klucel (hydroxypropylcellulose) (HPC) 90 % of control

Cc1cc(=O)n2c(nc3cc(C)c(C)cc32)s1
inactive: [9] 103 % of control | [10] 100 % of control

COC1OC(C(C)Br)C2OC(C)(C)OC12 (stereo not given)
inactive: [15] 105 % of control | [16] 102 % of control | [17] 107 % of control

O=C(c1cc(F)ccc1Nc1ccccc1)N1CCOCC1
inactive: dose: 12.5 mg/kg/injection, schedule: Q01DX009 (ip), vehicle: saline 98 % of control | [18] 100 % of control | [19] 98 % of control and 109 % of control

CCCCc1cc2ccccc2c(OCCN(C)C)n1
inactive: [11] 97 % of control | [12] 115 % of control | [13] 111 % of control
